Assay results as given in ChEMBL document CHEMBL2434882, “A novel [1,2,4] triazolo [1,5-a] pyrimidine-based phenyl-linked steroid dimer: synthesis and its cytotoxic activity” (Eur J Med Chem, 2013).
The source made the active and inactive calls. No cut-off for these calls is given here.

What was measured:
[1] = Disruption of mitochondrial membrane potential in human EC109 cells at 10 uM after 24 hrs by JC1 staining-based flow cytometric analysis (reference value: 8.1%); format: functional, ECa-109
ECa-109 cell line [2] = assay: Induction of apoptosis in human EC109 cells assessed as late apoptotic cells at 2.5 uM after 12 hrs by annexin V-FITC/propidium iodide staining-based flow cytometric analysis (reference value: 1.4%); format: functional
PC-3 = assay: Cytotoxicity against human PC3 cells assessed as growth inhibition after 72 hrs by MTT assay; format: functional, cell-based; details: PC-3, 72 h
ECa-109 cell line [3] = assay: Induction of apoptosis in human EC109 cells assessed as nuclear condensation at 1.25 to 20 uM after 24 hrs by Hoechst 33258 staining-based fluorescence microscopic analysis; format: functional, cell-based
[4] = Cytotoxicity against human L02 cells assessed as cell viability at 20 uM after 72 hrs by MTT assay relative to control; format: cell-based; details: read-out: Activity
[5] = Cell cycle arrest in human EC109 cells assessed as accumulation at S phase at 2.5 uM after 12 hrs by propidium iodide staining-based flow cytometric analysis (reference value: 33.29%); format: functional; details: ECa-109
ECa-109 cell line [6] = assay: Induction of apoptosis in human EC109 cells assessed as early apoptotic cells at 40 uM after 12 hrs by annexin V-FITC/propidium iodide staining-based flow cytometric analysis (reference value: 6.1%); format: functional
[7] = Selectivity ratio of IC50 for human L02 cells to IC50 for human SMMC7721 cells; format: cell-based, SMMC-7721; details: L02 cells versus SMMC7721 cells, read-out: Ratio IC50
ECa-109 = assay: Disruption of mitochondrial membrane potential in human EC109 cells after 24 hrs by JC1 staining-based flow cytometric analysis; format: functional, cell-based
ECa-109 cell line [8] = assay: Induction of apoptosis in human EC109 cells assessed as late apoptotic cells at 20 uM after 24 hrs by annexin V-FITC/propidium iodide staining-based flow cytometric analysis (reference value: 2.5%); format: functional
[9] = Downregulation of MDM2 protein expression in human EC109 cells at 5 to 10 uM after 24 hrs by Western blot analysis; format: functional, cell-based; details: ECa-109
[10] = Cell cycle arrest in human EC109 cells assessed as accumulation at G2/M phase at 10 uM after 24 hrs by propidium iodide staining-based flow cytometric analysis (reference value: 6.31%); format: functional; details: ECa-109
ECa-109 cell line [11] = assay: Induction of apoptosis in human EC109 cells assessed as late apoptotic cells at 2.5 uM after 24 hrs by annexin V-FITC/propidium iodide staining-based flow cytometric analysis (reference value: 2.5%); format: functional
ECa-109 cell line [12] = assay: Induction of apoptosis in human EC109 cells assessed as late apoptotic cells at 5 uM after 12 hrs by annexin V-FITC/propidium iodide staining-based flow cytometric analysis (reference value: 1.4%); format: functional
[13] = Cell cycle arrest in human EC109 cells assessed as accumulation at S phase at 5 uM after 24 hrs by propidium iodide staining-based flow cytometric analysis (reference value: 37.99%); format: functional; details: ECa-109
ECa-109 cell line [14] = assay: Induction of apoptosis in human EC109 cells assessed as live cells at 40 uM after 24 hrs by annexin V-FITC/propidium iodide staining-based flow cytometric analysis (reference value: 93.6%); format: functional
ECa-109 cell line [15] = assay: Induction of apoptosis in human EC109 cells assessed as increase in early apoptotic cells after 12 to 24 hrs by annexin V-FITC/propidium iodide staining-based flow cytometric analysis; format: functional, cell-based
ECa-109 cell line [16] = assay: Induction of apoptosis in human EC109 cells assessed as live cells at 5 uM after 12 hrs by annexin V-FITC/propidium iodide staining-based flow cytometric analysis (reference value: 92.1%); format: functional
[17] = Cell cycle arrest in human EC109 cells assessed as accumulation at G2/M phase at 2.5 uM after 12 hrs by propidium iodide staining-based flow cytometric analysis (reference value: 13.72%); format: functional; details: ECa-109
[18] = Upregulation of p53 protein expression in human EC109 cells at 5 to 10 uM after 24 hrs by Western blot analysis; format: functional, cell-based; details: ECa-109
ECa-109 cell line [19] = assay: Induction of apoptosis in human EC109 cells assessed as live cells at 5 uM after 24 hrs by annexin V-FITC/propidium iodide staining-based flow cytometric analysis (reference value: 93.6%); format: functional
[20] = Cell cycle arrest in human EC109 cells assessed as accumulation at G2/M phase at 2.5 to 10 uM by propidium iodide staining-based flow cytometric analysis; format: functional; details: ECa-109, TDE = time-dependent effect
ECa-109 cell line [21] = assay: Induction of apoptosis in human EC109 cells assessed as early apoptotic cells at 10 uM after 24 hrs by annexin V-FITC/propidium iodide staining-based flow cytometric analysis (reference value: 3.8%); format: functional
ECa-109 cell line [22] = assay: Induction of apoptosis in human EC109 cells assessed as early apoptotic cells at 2.5 uM after 12 hrs by annexin V-FITC/propidium iodide staining-based flow cytometric analysis (reference value: 6.1%); format: functional
[23] = Cell cycle arrest in human EC109 cells assessed as accumulation at G0/G1 phase at 5 uM after 12 hrs by propidium iodide staining-based flow cytometric analysis (reference value: 50.87%); format: functional; details: ECa-109
[24] = Cell cycle arrest in human EC109 cells assessed as accumulation at G2/M phase at 10 uM after 12 hrs by propidium iodide staining-based flow cytometric analysis (reference value: 13.72%); format: functional; details: ECa-109
ECa-109 cell line [25] = assay: Induction of apoptosis in human EC109 cells assessed as early apoptotic cells at 5 uM after 24 hrs by annexin V-FITC/propidium iodide staining-based flow cytometric analysis (reference value: 3.8%); format: functional
ECa-109 cell line [26] = assay: Induction of apoptosis in human EC109 cells assessed as activation of caspase-3/9 at 5 to 10 uM after 24 hrs by Western blot analysis; format: functional, cell-based
ECa-109 cell line [27] = assay: Induction of apoptosis in human EC109 cells assessed as live cells at 40 uM after 12 hrs by annexin V-FITC/propidium iodide staining-based flow cytometric analysis (reference value: 92.1%); format: functional
ECa-109 cell line [28] = assay: Induction of apoptosis in human EC109 cells assessed as early apoptotic cells at 20 uM after 12 hrs by annexin V-FITC/propidium iodide staining-based flow cytometric analysis (reference value: 6.1%); format: functional
ECa-109 cell line [29] = assay: Induction of apoptosis in human EC109 cells assessed as damaged cells at 20 uM after 24 hrs by annexin V-FITC/propidium iodide staining-based flow cytometric analysis (reference value: 0.1%); format: functional
ECa-109 cell line [30] = assay: Induction of apoptosis in human EC109 cells assessed as early apoptotic cells at 2.5 uM after 24 hrs by annexin V-FITC/propidium iodide staining-based flow cytometric analysis (reference value: 3.8%); format: functional
ECa-109 cell line [31] = assay: Induction of apoptosis in human EC109 cells assessed as damaged cells at 20 uM after 12 hrs by annexin V-FITC/propidium iodide staining-based flow cytometric analysis (reference value: 0.4%); format: functional
ECa-109 cell line [32] = assay: Induction of apoptosis in human EC109 cells assessed as live cells at 10 uM after 24 hrs by annexin V-FITC/propidium iodide staining-based flow cytometric analysis (reference value: 93.6%); format: functional
ECa-109 cell line [33] = assay: Induction of apoptosis in human EC109 cells assessed as damaged cells at 5 uM after 12 hrs by annexin V-FITC/propidium iodide staining-based flow cytometric analysis (reference value: 0.4%); format: functional

Q: Which Activity [1] does the source give for `C[C@]12CC[C@H](O)CC1=CC[C@@H]1[C@@H]2CC[C@]2(C)c3nc4ncnn4c(-c4cccc(-c5c6c(nc7ncnn57)[C@@]5(C)CC[C@H]7[C@@H](CC=C8C[C@@H](O)CC[C@@]87C)[C@@H]5C6)c4)c3C[C@@H]12` here?
A: 76.7%

Q: What about the Activity (ECa-109 cell line [2]) of the same molecule?
A: 13.1%

Q: And the IC50 (PC-3)?
A: 3.18 µM

Q: What about the Activity (ECa-109 cell line [3]) of the same molecule?
A: Active

Q: What about the viability at 72 h, 20 µM [4] of the same molecule?
A: 70%

Q: And the Activity [5]?
A: 34.2%

Q: What about the Activity (ECa-109 cell line [6]) of the same molecule?
A: 12.2%

Q: And the selectivity ratio [7]?
A: 49

Q: And the Activity (ECa-109)?
A: Dose-dependent effect

Q: And the Activity (ECa-109 cell line [8])?
A: 58.9%

Q: And the Activity [9]?
A: Active

Q: And the Activity [10]?
A: 25.1%

Q: What about the Activity (ECa-109 cell line [11]) of the same molecule?
A: 2.5%

Q: And the Activity (ECa-109 cell line [12])?
A: 14%

Q: And the Activity [13]?
A: 27%

Q: What about the Activity (ECa-109 cell line [14]) of the same molecule?
A: 8.3%

Q: And the Activity (ECa-109 cell line [15])?
A: Dose-dependent effect

Q: And the Activity (ECa-109 cell line [16])?
A: 59.9%

Q: What about the Activity [17] of the same molecule?
A: 17.9%

Q: What about the Activity [18] of the same molecule?
A: Active

Q: And the Activity (ECa-109 cell line [19])?
A: 48.2%

Q: What about the Activity [20] of the same molecule?
A: tde

Q: What about the Activity (ECa-109 cell line [21]) of the same molecule?
A: 24%

Q: And the Activity (ECa-109 cell line [22])?
A: 26.9%

Q: And the Activity [23]?
A: 52.9%

Q: What about the Activity [24] of the same molecule?
A: 28.3%

Q: And the Activity (ECa-109 cell line [25])?
A: 39.1%

Q: What about the Activity (ECa-109 cell line [26]) of the same molecule?
A: Active

Q: And the Activity (ECa-109 cell line [27])?
A: 14.6%

Q: And the Activity (ECa-109 cell line [28])?
A: 34%

Q: What about the Activity (ECa-109 cell line [29]) of the same molecule?
A: 2.4%

Q: What about the Activity (ECa-109 cell line [30]) of the same molecule?
A: 25%

Q: And the Activity (ECa-109 cell line [31])?
A: 2.1%

Q: What about the Activity (ECa-109 cell line [32]) of the same molecule?
A: 25.4%

Q: And the Activity (ECa-109 cell line [33])?
A: 2%
